# Literature values as cited in patent US20100272789A1, “EXTERNAL MEDICINE FOR TREATMENT OR PREVENTION” (priority 2007, published 2010).
# Settings: 20 degrees Celsius at 1 atm
structure (smiles),measurement,value
"[HH] [hydrogen molecules, hydrogen]",solubility of hydrogen molecules into water,1.6 mg/L
